# Assay results reported in a melting point compilation (Tetko et al.; mined from patent text by program, amines drawn as free bases though some values may be those of a salt).
row,Structure (SMILES),melting point
1,COc1ccccc1N(C(N)=O)c1ccc(CC(=O)O)cc1C,260 to 264 °C
2,Cc1nnc2n1-c1ccccc1NC2C (stereo unspecified),172 to 173 °C
3,Oc1ccc(C(F)(F)C(F)(F)C(F)(F)/C=C/C(F)(F)C(F)(F)C(F)(F)c2ccc(O)cc2)cc1,134 to 138 °C
4,CCOC(=O)c1[nH]c(C)cc1N,85 to 87 °C
5,COC(=O)c1nnn(C)c1C(=O)OC,63 to 64 °C
6,CCN(CC)C(=O)c1cc2cc(Br)ccc2o1,79 to 81 °C
7,O=c1ncc2c3c(ccc2[nH]1)OCO3,> 300 °C
8,O=C1NC(=O)[C@@]2(C[C@@H](C(=O)NCCN3CCN(C(c4ccccc4)c4ccccc4)CC3)Oc3ccc(F)cc32)N1,200 to 205 °C
9,OC(CNCc1ccccc1)C(c1ccccc1)c1ccccc1 (stereo unspecified),123 to 124 °C
10,Cc1ccc2c(-c3cccc(O)c3)nc(=O)n(C(C)C)c2c1,270 to 272 °C
11,COc1ccc2nc(-c3ccc(N)cc3)sc2c1,191 to 193 °C
12,FC(F)c1cc(-c2ccc(C(F)(F)F)cc2)nc2c(-c3ccncc3)cnn12,222 °C
13,O=C(Cl)c1cc2[nH]c3cc(Cl)ccc3c2o1,232 to 233 °C
14,N#Cc1cc(C=C2SC(=S)NC2=O)cc(O)c1O,> 350 °C
15,CC(=O)NNc1ccc(Cl)c(CN2OCC(C)(C)C2=O)c1,178 to 180 °C
16,N=C(NCc1cccnc1)NN=Cc1c(Cl)cccc1Cl,148 to 151 °C
17,CCOC(=O)c1ccc(NC=Nc2ccc3[nH]cc(CCN4C(=O)c5ccccc5C4=O)c3c2)cc1,110 °C
18,CCOC(=O)c1ccc(N)cc1F,110 to 112 °C
19,CC(=O)Oc1cc(OC(C)=O)c2ccc(=O)[nH]c2c1,230 to 232 °C
20,CC(=O)OC1CC2(C)C(CCC2(O)C(C)=O)C2CCC3=CC(=O)CCC3(C)C12 (stereo unspecified),160 °C
21,CCOC(=O)CCN1CCN(CC=CC(=O)Nc2cc3c(Nc4ccc(F)c(Cl)c4)ncnc3cc2OCC2CC2)CC1,183 to 185 °C
22,OC1(c2ccc(F)cc2)Cc2ccccc2C2=NCCN21 (stereo unspecified),150 to 151 °C

row,Structure (SMILES),melting point
1,Cn1cc(C2=C(c3cn(C4CCN(CC(F)(F)C(F)(F)C(F)(F)F)CC4)c4ccccc34)C(=O)NC2=O)c2ccccc21,231 to 234 °C
2,CC(CN1CCCS1(=O)=O)c1ccncc1 (stereo unspecified),90 to 92 °C
3,CNc1nc2ccccc2n1CCO,> 200 °C
4,CC(C)CCCC(C)NC1=NS(=O)(=O)c2cc(Cl)ccc2N1 (stereo unspecified),> 220 °C
5,CN(CCO)c1cc(C(c2cc(F)ccc2F)S(=O)(=O)c2ccc(Cl)cc2)c(Cl)cn1 (stereo unspecified),88 to 89 °C
6,O=C(O)c1cc(Cl)ccc1C(O)=NCc1ccccc1,117 to 119 °C
7,OC1C2CCN(CC2)C1CN1CCCCC1 (stereo unspecified),130 to 131 °C
8,CCOC(=O)c1cc(Cl)c(OCc2ccccc2)c(Cl)c1,66 to 68 °C
9,O=C(O)c1cc(NCc2ccc(Cl)cc2)ccc1O,227 to 228 °C
10,Cc1c(-c2ccccc2Cl)sc2nc(N)[nH]c(=O)c12,334 to 336 °C
11,ClCCOc1ccc([C@H]2c3ccc(OCc4ccccc4)cc3OC[C@H]2c2ccccc2)cc1 (racemic),66 to 70.6 °C
12,O=C(O)Cc1cccc(Oc2ccccc2)c1O,132 to 135 °C
13,CC(=O)c1cccc(NC(=O)c2ccc3c(c2)CC(CSCc2ccccc2)O3)c1O (stereo unspecified),119 to 121 °C
14,CC(=O)OCC1OC(n2ccc3c(Br)cccc32)C(OC(C)=O)C(OC(C)=O)C1OC(C)=O (stereo unspecified),166 to 167 °C
15,CSC(=C(C#N)C#N)N(C)N=Cc1ccccc1,159 to 160 °C
16,O=S(=O)(Cc1ccc(Cl)c(Cl)c1)Cc1ccc(Cl)c(Cl)c1,177 °C
17,O=C1N(C23CC4CC(CC(C4)C2)C3)CCC1(Cc1ccncc1)Cc1ccncc1,164 to 165 °C
18,Cn1nc2c(N)nc3ccccc3c2c1CC1(F)CCN(S(C)(=O)=O)CC1,283 to 285 °C
19,NS(=O)(=O)c1ccc(-c2c(CC(O)c3ccc(Cl)cc3)noc2-c2ccccc2)cc1 (stereo unspecified),165 to 167 °C
20,Cc1cccc(C2(C(N)=S)CCCS2)n1 (stereo unspecified),171 °C
21,Cc1cn(C)cc1C(=O)O,166 to 168 °C
22,CCOC(=O)N1C=CC(c2c(-c3cccs3)nc3ccc(N4CCN(C(=O)OC(C)(C)C)CC4)nn23)C=C1,155 °C

row,Structure (SMILES),melting point
1,Cc1cccc(C2COc3c(ccc(O)c3O)C2)c1 (stereo unspecified),95 to 96 °C
2,Cc1ccc([PH](=O)c2ccc(C)cc2)cc1,93.7 °C
3,Cc1ccc(CSc2nc3cc4c(cc3[nH]2)OCCO4)nc1,155 to 156 °C
4,Cc1cnc2sc(S(=O)(=O)Cc3ccccc3)nn2c1=O,171 to 173 °C
5,CC(C)c1cccc(C(C)C)c1NC(=O)CNC(c1ccccc1)c1ccc(F)cc1 (stereo unspecified),161 °C
6,CCc1ccc2c(c1)CC(=O)N2,136 to 137 °C
7,COC(=O)CCc1ccc(N2CCN(c3ccc(C(=N)NC(=O)OC)cc3)C2=O)cc1,> 260 °C
8,COc1ccc2nc(CCCCCCC(=O)O)ccc2c1,84 to 87 °C
9,N#CC1CCN(C(=O)c2ccc3nonc3c2)CC1,104 to 107 °C
10,CNC1(c2ccccc2)CC=C(c2[nH]c3ccccc3c2CCc2ccncc2)CC1 (stereo unspecified),168 to 172 °C
11,CNc1cccc2c1OC1(CC1)C2=O,98.2 °C
12,CCOC(=O)c1sc2[nH]c(C(=O)c3ccccc3)cc2c1C,180 to 181 °C
13,c1ccc(CN2CCC(CCc3noc4cc(N5CCOCC5)ccc34)CC2)cc1,129 to 130 °C
14,CC(C)Cc1c2c(nn1Cc1ccccc1)c(N)nc1ccccc12,194 to 196 °C
15,CC(C)(C)c1cccc(C(=O)Nc2ccccc2C(=O)NCCc2ncc[nH]2)c1,205 to 210 °C
16,O=C(O)c1cn(C2CC2)c(-c2ccc3c(c2)OCO3)cc1=O,211 to 212 °C
17,CCOP(=O)(OCC)C1CCn2c(=O)c(=O)[nH]c3cc(C(F)(F)F)cc1c32 (stereo unspecified),250 °C
18,CCC(CCN=C(O)C(Br)=C(Br)C(=O)O)c1ccccc1 (stereo unspecified),71 to 73 °C
19,O=C(O)c1cn(Cc2ccc(OCc3csc(-c4ccccc4)n3)cc2)nc1-c1ccccc1,119 to 120 °C
20,CCNc1nc(-c2ccc(F)c3ccccc23)cc(C(C)C)n1,77 to 78 °C
21,CCn1nc(C)c2c(O)c(C(=O)O)cnc21,212 to 213 °C
22,CCCCNC(=O)Nc1ccccc1C(=O)NC1CCN(C(c2ccccc2)c2ccccc2)CC1,204 to 206 °C

row,Structure (SMILES),melting point
1,O=C(c1cccnc1)N1CCC(c2ccccc2Cl)=N1,115 to 116 °C
2,CC1CCC(C(C)C)C(C(C#Cc2ccc(Cc3ccc(F)cc3)o2)N(O)C(N)=O)C1 (stereo unspecified),154 to 156 °C
3,CCOC(=O)/C=C(C)/C(F)=C/C=C(C)/C=C/c1c(C)cc(C)c(Cl)c1C,100 to 104 °C
4,CCCCCNc1n[nH]c(C)c1C(=O)OCC,117 to 119 °C
5,CCOc1cc2cc3c(c(-c4ccncc4)c2cc1OCC)C(=O)NC3=O,210 to 213 °C
6,Nc1ccc(CCC(=O)c2ccccc2)cc1,76 to 78 °C
7,COc1cc(C=O)cc2c(N(C)C)cc(C)nc12,127 to 129 °C
8,COc1cc(-c2nc3cc(F)ccc3s2)ccc1OC(=O)c1cccc([N+](=O)[O-])c1,190 °C
9,O=C1COc2ccc(C3=Cc4ccc(NCCCO)cc4OC3c3ccccc3)cc2N1 (stereo unspecified),215 to 217 °C
10,O=C(O)C(=O)c1ccc2c(c1)Cc1ccccc1-2,135 to 137 °C
11,Cc1ccc(-c2nc3ccccc3o2)cc1,113 to 114 °C
12,CCOC(=O)C1(C)C=C(O)c2c(sc3c2CCC2(C3)OCCO2)N1 (stereo unspecified),94 to 95 °C
13,O=C(O)Cn1c(=O)[nH][nH]c1=O,220 to 223 °C
14,O=C(Cl)N1CCNC1=O,150 °C
15,CN1C(=O)CSC1c1cccnc1 (stereo unspecified),96.5 to 97.5 °C
16,CCCOc1ccc(-c2ccc3c(c2)C=C(C(=O)Nc2ccc(CN(C)C4CCOCC4)cc2)CCS3(=O)=O)cc1OCCC,206 to 208 °C
17,CCOC(=O)CS(=O)(=O)c1cc(NS(=O)(=O)c2cccs2)c2ccccc2c1O,154 to 156 °C
18,COc1ccc(C(c2ccc(OC)cc2)C2CN(C)CCC2=O)cc1 (stereo unspecified),104 to 106 °C
19,CCCC(=O)c1cnc2c(OC)csc2c1Cl,76 to 78 °C
20,COc1ccc(Cn2nnnc2C(O)c2ccccc2Cl)cc1 (racemic),128 to 130 °C
21,CCN(CC)CCNC(=O)C1N=C(c2ccccc2)c2cc(Cl)ccc2NC1=O (stereo unspecified),220 °C
22,C#CCOc1cc(C(=O)O)cc(S(N)(=O)=O)c1-c1ccccc1,154 to 155 °C

row,Structure (SMILES),melting point
1,CC(C(=O)O)C1CC(=O)N(c2ccc(Cl)cc2)C1 (stereo unspecified),63 to 67 °C
2,Nc1ccc2c(c1)NC(=O)c1cscc1N2,212 to 215 °C
3,O=C(NC1CCN(CCc2ccc([N+](=O)[O-])cc2)CC1)c1ccccc1,209 to 216 °C
4,CN(C)C(=O)NC1CCC(=O)c2ccccc21 (stereo unspecified),157 to 162 °C
5,CN(C)CCOc1cc(CCCOc2nn(Cc3ccccc3)cc2CC(=O)O)n(Cc2ccc(Cl)cc2Cl)n1,78.3 to 80.8 °C
6,COC1=C(OC)C(=O)C(CCCCCCCCCCCCCCCC(=O)O)=C(C)C1=O,70 to 71 °C
7,COc1cc2cc(-c3ccc(OCC(O)CNC(C)(C)C)cc3)n(C)c(=O)c2cc1OC (stereo unspecified),165 to 166 °C
8,CCCNC(=O)C(C)=Cc1ccc2c(c1)c(Cc1ccc(C(=O)O)cc1OC)cn2CC(=O)N(C)C,232 to 235 °C
9,C=CCC1(c2ccccc2)OC(C(=O)OC)Oc2ccc(Cl)cc21 (stereo unspecified),70 °C
10,Nc1nc2c(=O)c3cc(Cl)ccc3oc2cc1-c1nnn[nH]1,> 300 °C
11,COCCn1nc2c(N)nc3ncccc3c2c1CC(C)(C)O,233 to 236 °C
12,CC(C)(C)NCC(O)COc1ccccc1C=Cc1cccc2c1CC(=O)N2 (stereo unspecified),112 °C
13,Cn1c2ccccc2c2c(=O)[nH]ccc21,242 °C
14,O=c1cc(-c2ccccc2)cc[nH]1,226 to 230 °C
15,COC(=O)C=Cc1ccccc1C#N,92 to 93 °C
16,Cn1c(CCNC(=O)OCc2ccccc2)nc(-c2ccncn2)cc1=O,121 to 123 °C
17,CC(=O)C1(OC=O)CCC2C3CCC4=CC(=O)C=CC4(C)C3CCC21C (stereo unspecified),201 to 205 °C
18,COc1c(C)cccc1Oc1ccccc1,52 to 53 °C
